Data: ChEMBL document CHEMBL3217602, “20-O-IngenolEZ, a catalytic topoisomerase II inhibitor, specifically inhibits cell proliferation and induces double-strand DNA breaks in BLM-/- cells” (2011)
Calls of active or inactive are those of the source. The calls are words filed in the database; no cut-off is given here.

Experiments:
DT40 [1] = test: Induction of double-strand DNA breaks in chicken BLM-/- DT40 cell nuclear fraction assessed as gamma-H2AX phosphorylation at 0.9 uM after 24 hrs by immunoblot analysis; assay type: functional, cell-based; conditions: Gallus gallus
[2] = Induction of apoptosis in chicken BLM-/- DT40 cells at 0.9 uM after 24 hrs by DAPI staining based immunofluorescence assay; assay type: functional, Gallus gallus
DT40 [3] = test: Inhibition of chicken WRN-/- DT40 cell proliferation at 2 to 100 uM after 2 days by MTT assay; assay type: functional, cell-based; conditions: Gallus gallus
DT40 [4] = test: Inhibition of chicken BLM-/- DT40 cell proliferation at 2 to 60 uM after 2 days by MTT assay; assay type: functional, cell-based; conditions: Gallus gallus
DT40 [5] = test: Inhibition of chicken BLM-/- DT40 cell proliferation at 100 uM after 2 days by MTT assay; assay type: functional, cell-based; conditions: Gallus gallus
DT40 [6] = test: Inhibition of chicken WRN-/- DT40 cell proliferation at 200 uM after 2 days by MTT assay; assay type: functional, cell-based; conditions: Gallus gallus
DT40 [7] = test: Inhibition of chicken BLM-/- DT40 cell proliferation at 200 uM after 2 days by MTT assay; assay type: functional, cell-based; conditions: Gallus gallus
DT40 [8] = test: Inhibition of chicken wild type DT40 cell proliferation at 2 to 100 uM after 2 days by MTT assay; assay type: functional, cell-based; conditions: Gallus gallus
[9] = (§1) Inhibition of chicken wild type DT40 cell proliferation at 200 uM after 2 days by MTT assay; assay type: functional; conditions: Gallus gallus, DT40, 48 h
DT40 [10] = test: Induction of double-strand DNA breaks in chicken BLM-/- DT40 cell nuclear fraction assessed as gamma-H2AX phosphorylation at 200 uM after 24 hrs by immunoblot analysis; assay type: functional, cell-based; conditions: Gallus gallus
DT40 [11] = test: Induction of apoptosis in chicken BLM-/- DT40 cells at 200 uM after 24 hrs by DAPI staining based immunofluorescence assay; assay type: functional, cell-based; conditions: Gallus gallus
DT40 [12] = test: as §1; assay type: functional; conditions: Gallus gallus

Row | Compound | Activity (DT40 [1]) | Activity [2] [%] | inhibition (DT40 [3]) | inhibition (DT40 [4]) | inhibition (DT40 [5]) | inhibition (DT40 [6]) | inhibition (DT40 [7]) | inhibition (DT40 [8]) | inhibition at 200 µM [9] [%] | Activity (DT40 [10]) | Activity (DT40 [11]) | inhibition (DT40 [12])
1 | COc1cccc2c1C(=O)c1c(O)c3c(c(O)c1C2=O)C[C@@](O)(C(=O)CO)C[C@@H]3O[C@H]1C[C@H](N)[C@H](O)[C@H](C)O1 [DOXORUBICIN] | Active | 60 |  |  |  |  |  |  |  |  |  | 
2 | CCCCC/C=C\C=C\C(=O)OCC1=C[C@@H]2C(=O)[C@]3(C=C(C)[C@H](O)[C@@]3(O)[C@@H]1O)[C@H](C)C[C@@H]1[C@H]2C1(C)C |  |  | inactive | inactive | Active | inactive | Active | inactive | 50 | Active | Active | 
3 | C[C@H]([C@H](C)N1CC(=O)NC(=O)C1)N1CC(=O)NC(=O)C1 |  |  |  |  |  | Active | Active |  |  |  |  | Active
